In brackets after ≈: the same amount, converted by molar mass. Several values for one entry are separate records, joined by “and”; a condition that tells them apart may be missing. Equal entries are not always repeated.
conditions: buffer; pH 7.4; 6.0 h; 150.0 µM

Compound | solubility kinetic
CC(=O)Nc1ncc(S(=O)(=O)N2CCOCC2)s1 | 26.6 µg/mL (≈ 91.1 µM)
O=C(Nc1ccc(S(=O)(=O)Nc2nccs2)cc1)c1ccc2ccccc2c1 | < 1 µg/mL
CC(=O)Nc1ccc(OCc2cn(CC(=O)c3ccc(O)cc3)nn2)cc1 | 18.7 µg/mL (≈ 51 µM)
CCCNC(=O)c1ccc2c(c1)ncn2-c1cc(C)cc(C)c1 | < 1 µg/mL
CC(C)c1ccccc1-c1ncc(F)c(NC(C)(C)c2ccc(-c3cccnc3)cc2)n1 | < 1 µg/mL
Fc1cnc(-c2ccccc2C(F)F)nc1NCC1CCN(c2cnccn2)CC1 | < 1 µg/mL
Fc1cc(Nc2nc(-c3ccncc3)nc3ccccc23)ccc1-c1cccnc1 | < 1 µg/mL
Cc1cc(-c2nnc3n2CCCCC3)c(C)n1-c1ccc(C(F)(F)F)cc1 | 43.3 µg/mL (≈ 116 µM)
O=C(NCC1Cn2cccc2CN1Cc1cccnc1)Nc1ccccc1 (centres undefined) | > 53 µg/mL
COc1ccnc(NC(=S)N2CCN(c3cccc(C(F)(F)F)n3)CC2)c1 | < 1 µg/mL
Cn1cc(S(=O)(=O)N2CCOCC2)cc1C(=O)Nc1ccc(Cl)c(C(F)(F)F)c1 | < 1 µg/mL
Cc1cc(-c2nnc3n2CCCCC3)c(C)n1-c1ccc(F)cc1 | 35.3 µg/mL (≈ 109 µM)
C[S+](=O)([O-])c1ccc(-c2nc(C(=O)N3CCOCC3)n3ccccc23)cc1 | > 57 µg/mL
COc1ccc(-c2ccc3ncc(Nc4ccc(C(N)=O)cc4)n3n2)cc1OC | 27.4 µg/mL (≈ 70.4 µM)
CN(C)c1ccccc1-c1csc(N2CCC(C(N)=O)CC2)n1 | > 49 µg/mL
COc1cc(Cl)c(C)cc1NS(=O)(=O)c1c(C)nc2sccn2c1=O | < 1 µg/mL
CC(C)c1ccc(S(=O)(=O)c2cnc(SCC(=O)Nc3ccc4c(c3)OCCO4)[nH]c2=O)cc1 | > 74 µg/mL
CCOc1ccccc1C(=O)Nc1ccccc1C(=O)Nc1cccc(S(=O)(=O)C(F)(F)F)c1 | 1.57 µg/mL (≈ 3.18 µM)
NC1CCN(c2nc(-c3ccc(Br)cc3)cs2)CC1 | 8.9 µg/mL (≈ 26.3 µM)
O=C(NCc1ccccc1)c1nc(S(=O)(=O)Cc2ccc(F)cc2)ncc1Cl | < 1 µg/mL
COc1ccccc1N1CCN(CCN(C(=O)c2ccc(I)cc2)c2ccccn2)CC1 | 53.8 µg/mL (≈ 99.1 µM)
Cc1nc2sccn2c(=O)c1S(=O)(=O)Nc1ccc(N2CCN(C)CC2)cc1 | > 62 µg/mL
CN=C1CN=C(c2ccc[nH]2)c2cc(Cl)ccc2N1 | 10.8 µg/mL and 28.3 µg/mL
O=[S+]([O-])(Nc1ccc(C2CCNCC2)cc1)c1ccc(NCc2ccc(Br)cc2O)cc1 | 12.8 µg/mL (≈ 24.8 µM)
COc1ccc(C)cc1Nc1c2c(nc3ccccc13)CCC2 | > 45 µg/mL

Compound | solubility kinetic
CCOc1ccccc1N1CC(c2nc3ccccc3n2CCOc2ccc(C(C)(C)C)cc2)CC1=O (centres undefined) | < 1 µg/mL
COc1cccc(CNc2ccc(S(=O)(=O)Nc3nc4ccccc4s3)cc2)c1O | 2.08 µg/mL (≈ 4.72 µM)
COc1ccc(CNc2ccc(S(=O)(=O)Nc3nccs3)cc2)c(O)c1 | 45.4 µg/mL (≈ 116 µM)
CCCN1CNc2c(c(=O)[nH]c(=S)n2CCc2ccc(OC)c(OC)c2)C1 | > 58 µg/mL
O=C([C@H](Cc1ccc(O[S+](=O)([O-])c2cccc3cnccc23)cc1)N[S+](=O)([O-])c1cccc2cnccc12)N1CCN(Cc2ccccc2)CC1 | < 1 µg/mL
Cc1onc(-c2ccccc2)c1C(=O)Nc1nnc(COc2ccc(Cl)cc2)s1 | < 1 µg/mL
CCOc1ccc(CCNC(=O)c2cc3ccccc3o2)cc1OCC | 8.88 µg/mL (≈ 25.1 µM)
CN1CCC(N(Cc2cccs2)c2ccccc2)CC1 | > 42 µg/mL
CN1CC(CNC(=O)OCc2ccccc2)C[C@H]2c3cccc4c3c(cn4C)CC21 (some centres undefined) | 38.4 µg/mL (≈ 95.2 µM)
CN1C(=O)C(=O)N2C(=C[C@]3(c4c[nH]c5ccccc45)c4ccccc4N[C@H]23)C1=O | < 1 µg/mL
Cc1ccc(-c2cc(C(=O)Nc3ccc(-c4nn[nH]n4)cc3)c3ccccc3n2)cc1C | 7.58 µg/mL (≈ 18 µM)
CC1CCc2cc(F)ccc2N1C(=O)CSc1nnc2c(n1)[nH]c1ccccc12 (centres undefined) | < 1 µg/mL
Cc1nc([N+](=O)[O-])cn1-c1ccc([N+](=O)[O-])cc1 | > 37 µg/mL
Cc1cccc(-c2[nH]c(C(C)(C)C)nc2-c2ccc3nccnc3c2)n1 | > 51 µg/mL
COc1ccc(-n2c(C)c(C(C)=O)c3ccccc32)cc1 | < 1 µg/mL
Cc1ccc(S(=O)(=O)Nc2cnccc2C(=O)Nc2nc(C(=O)O)cs2)cc1 | > 62 µg/mL
CC(C)c1ccccc1-c1ncc(F)c(NC2(c3ccc(-c4cccnc4)cc3)CC2)n1 | < 1 µg/mL
O=S(=O)(c1ccccc1)c1nc(-c2ccc(F)cc2)oc1N1CCCCCC1 | < 1 µg/mL
Nc1c(S(=O)(=O)c2cccs2)c2nc3ccccc3nc2n1Cc1ccccc1 | < 1 µg/mL
Fc1ccc(-c2ccc(Nc3nc(-c4ccncc4)nc4ccccc34)cc2F)c(Cl)c1 | < 1 µg/mL
CCc1cccc(NS(=O)(=O)c2ccc3c(c2)CC(C)N3C(=O)C2CC2)c1 (centres undefined) | < 1 µg/mL
CO[C@@H]1[C@H](N(C)C(=O)c2ccccc2)C[C@H]2O[C@]1(C)n1c3ccccc3c3c4c(c5c6ccccc6n2c5c31)C(=O)NC4 | < 1 µg/mL
CCN1CCC(N(Cc2ccc3c(c2)OCO3)C(=O)Nc2cc(Cl)ccc2C(=O)OC)CC1 | 58.5 µg/mL (≈ 123 µM)
CC(O)(C#Cc1ccc2c(c1)N(c1nc(N)ncc1Cl)CC2)c1nccs1 (centres undefined) | 11.9 µg/mL (≈ 29.9 µM)

Reference: PubChem BioAssay AID1645848
